Results: ChEMBL document CHEMBL3751686, “Novel benzoxepine-1,2,3-triazole hybrids: synthesis and pharmacological evaluation as potential antibacterial and anticancer agents” (Medchemcomm, 2015)
Converted amounts (≈) assume the structure as drawn. The source made the active and inactive calls. The rule behind the calls is not given here.

Legend:
[1] = test system: Pseudomonas aeruginosa; assay: Antibacterial activity against Pseudomonas aeruginosa MTCC 6642 at 0.4 mg/50 uL incubated overnight by agar-well diffusion analysis; format: functional
[2] = test system: Escherichia coli; assay: Antibacterial activity against Escherichia coli MTCC 1563 at 0.4 mg/50 uL incubated overnight by agar-well diffusion analysis; format: functional
[3] = test system: Klebsiella pneumoniae; assay: Antibacterial activity against Klebsiella pneumoniae at 0.4 mg/50 uL incubated overnight by agar-well diffusion analysis; format: functional
[4] = test system: Staphylococcus aureus; assay: Antibacterial activity against Staphylococcus aureus at 0.4 mg/50 uL incubated overnight by agar-well diffusion analysis; format: functional
[5] = test system: NCI-H226; assay: Cytotoxicity against human NCI-H226 cells after 48 hrs by SRB assay; format: functional; conditions: NCI-H226, 48 h
[6] = Cytotoxicity against human HCT15 cells after 48 hrs by SRB assay; format: functional; conditions: HCT-15, 48 h; for CC50: read-out: LC50 (the source's name)
[7] = test system: NCI-H226; assay: Cytotoxicity against human NCI-H226 cells assessed as cell growth at 80 ug/ml after 48 hrs by SRB assay; format: functional; conditions: NCI-H226, 48 h, read-out: Activity
[8] = Cytotoxicity against human HCT15 cells assessed as cell growth at 80 ug/ml after 48 hrs by SRB assay; format: functional; conditions: HCT-15, 48 h, read-out: Activity
[9] = test system: HEK293; assay: Cytotoxicity against HEK293 cells after 48 hrs by SRB assay; format: cell-based; conditions: human, hek293, 48 h
[10] = test system: Escherichia coli; assay: Antibacterial activity against Escherichia coli MTCC 1563 at 0.04 mg/50 uL incubated overnight by agar-well diffusion analysis; format: functional
[11] = test system: Staphylococcus aureus; assay: Antibacterial activity against Staphylococcus aureus at 0.04 mg/50 uL incubated overnight by agar-well diffusion analysis; format: functional
[12] = test system: Klebsiella pneumoniae; assay: Antibacterial activity against Klebsiella pneumoniae at 0.04 mg/50 uL incubated overnight by agar-well diffusion analysis; format: functional
[13] = test system: Pseudomonas aeruginosa; assay: Antibacterial activity against Pseudomonas aeruginosa MTCC 6642 at 0.04 mg/50 uL incubated overnight by agar-well diffusion analysis; format: functional

SMILES: Cc1cccc2c1OCCC(Cn1cc(-c3ccccc3)nn1)=C2Cl
- diameter of the inhibition zone (DIZ) [1]: 11 mm
- diameter of the inhibition zone (DIZ) [2]: 25 mm
- diameter of the inhibition zone (DIZ) [3]: 9 mm

SMILES: Cc1cc(=O)oc2cc(OCc3cn(CC4=C(Cl)c5ccccc5OCC4)nn3)ccc12
- diameter of the inhibition zone (DIZ) [4]: 11 mm
- diameter of the inhibition zone (DIZ) [1]: 12 mm
- diameter of the inhibition zone (DIZ) [2]: 11 mm
- diameter of the inhibition zone (DIZ) [3]: 7 mm

SMILES: Cc1cccc2c1OCCC(Cn1cc(COc3ccc4c(C)cc(=O)oc4c3)nn1)=C2Cl
- diameter of the inhibition zone (DIZ) [4]: 11 mm
- diameter of the inhibition zone (DIZ) [1]: 11 mm

SMILES: O=c1ccc2ccc(OCc3cn(CC4=C(Cl)c5cc(Cl)ccc5OCC4)nn3)cc2o1
- diameter of the inhibition zone (DIZ) [4]: 10 mm
- diameter of the inhibition zone (DIZ) [1]: 11 mm
- diameter of the inhibition zone (DIZ) [2]: inactive
- diameter of the inhibition zone (DIZ) [3]: 12 mm

SMILES: COc1cccc2c1C(=O)c1c(O)c3c(c(O)c1C2=O)C[C@@](O)(C(=O)CO)C[C@@H]3O[C@H]1C[C@H](N)[C@H](O)[C@H](C)O1 [DOXORUBICIN]
- GI50 [5]: < 10 µg/mL
- TGI [5]: < 10 µg/mL
- GI50 [6]: < 10 µg/mL
- TGI [6]: 36.1 µg/mL (≈ 66.4 µM)
- CC50 [6]: > 80 µg/mL

SMILES: O=c1ccc2ccc(OCc3cn(CC4=C(Cl)c5ccccc5OCC4)nn3)cc2o1
- diameter of the inhibition zone (DIZ) [4]: 10 mm
- diameter of the inhibition zone (DIZ) [1]: 12 mm
- diameter of the inhibition zone (DIZ) [2]: inactive
- diameter of the inhibition zone (DIZ) [3]: 11 mm

SMILES: Cc1ccc(-c2cn(CC3=C(Cl)c4cc(Cl)ccc4OCC3)nn2)cc1
- diameter of the inhibition zone (DIZ) [1]: 12 mm
- diameter of the inhibition zone (DIZ) [2]: 13 mm
- diameter of the inhibition zone (DIZ) [3]: 10 mm

SMILES: Cc1ccc2c(c1)C(Cl)=C(Cn1cc(-c3ccccc3)nn1)CCO2
- diameter of the inhibition zone (DIZ) [1]: 16 mm
- diameter of the inhibition zone (DIZ) [3]: 9 mm

SMILES: ClC1=C(Cn2cc(COc3cccc4cccnc34)nn2)CCOc2ccccc21
- diameter of the inhibition zone (DIZ) [4]: 8 mm
- diameter of the inhibition zone (DIZ) [2]: 11 mm
- diameter of the inhibition zone (DIZ) [3]: inactive

SMILES: ClC1=C(Cn2cc(-c3ccccc3)nn2)CCOc2ccccc21
- growth at 80 µg/mL [7]: 73%
- diameter of the inhibition zone (DIZ) [4]: 7 mm
- diameter of the inhibition zone (DIZ) [1]: 13 mm
- growth at 80 µg/mL [8]: 61%
- Activity [9]: Non-toxic
- diameter of the inhibition zone (DIZ) [2]: inactive
- diameter of the inhibition zone (DIZ) [3]: 18 mm

SMILES: ClC1=C(Cn2cc(COc3cccc4cccnc34)nn2)CCOc2ccc(Cl)cc21
- diameter of the inhibition zone (DIZ) [4]: 12 mm
- diameter of the inhibition zone (DIZ) [1]: 10 mm
- diameter of the inhibition zone (DIZ) [2]: 10 mm
- diameter of the inhibition zone (DIZ) [3]: 12 mm

SMILES: Cc1ccc(-c2cn(CC3=C(Cl)c4cccc(C)c4OCC3)nn2)cc1
- diameter of the inhibition zone (DIZ) [4]: 7 mm
- diameter of the inhibition zone (DIZ) [1]: 15 mm
- growth at 80 µg/mL [8]: 58%
- Activity [9]: Non-toxic
- diameter of the inhibition zone (DIZ) [2]: 20 mm
- diameter of the inhibition zone (DIZ) [3]: 17 mm

SMILES: Cc1cc(=O)oc2cc(OCc3cn(CC4=C(Cl)c5cc(Cl)ccc5OCC4)nn3)ccc12
- diameter of the inhibition zone (DIZ) [4]: 12 mm
- diameter of the inhibition zone (DIZ) [1]: 18 mm
- diameter of the inhibition zone (DIZ) [2]: 14 mm

SMILES: Cc1ccc(-c2cn(CC3=C(Cl)c4cc(C)ccc4OCC3)nn2)cc1
- diameter of the inhibition zone (DIZ) [4]: 8 mm
- diameter of the inhibition zone (DIZ) [1]: 10 mm
- diameter of the inhibition zone (DIZ) [2]: 10 mm

SMILES: Cc1ccc2c(c1)C(Cl)=C(Cn1cc(COc3ccc4c(C)cc(=O)oc4c3)nn1)CCO2
- diameter of the inhibition zone (DIZ) [1]: 16 mm
- diameter of the inhibition zone (DIZ) [2]: inactive
- diameter of the inhibition zone (DIZ) [3]: 12 mm

SMILES: Cc1cccc2c1OCCC(Cn1cc(COc3ccc4ccc(=O)oc4c3)nn1)=C2Cl
- diameter of the inhibition zone (DIZ) [4]: 12 mm
- diameter of the inhibition zone (DIZ) [1]: 14 mm
- growth at 80 µg/mL [8]: 86%
- Activity [9]: Non-toxic
- diameter of the inhibition zone (DIZ) [3]: inactive

SMILES: CCn1cc(C(=O)O)c(=O)c2cc(F)c(N3CCN(C)CC3)cc21 [PEFLOXACIN]
- diameter of the inhibition zone (DIZ) [10]: 31 mm
- diameter of the inhibition zone (DIZ) [11]: 36 mm
- diameter of the inhibition zone (DIZ) [12]: 35 mm
- diameter of the inhibition zone (DIZ) [13]: 28 mm

SMILES: Cc1ccc2c(c1)C(Cl)=C(Cn1cc(COc3ccc4ccc(=O)oc4c3)nn1)CCO2
- growth at 80 µg/mL [7]: 8%
- diameter of the inhibition zone (DIZ) [4]: 10 mm
- GI50 [5]: 41.3 µg/mL (≈ 91.8 µM)
- LC50 [5]: > 80 µg/mL
- TGI [5]: > 80 µg/mL
- diameter of the inhibition zone (DIZ) [1]: 18 mm
- growth at 80 µg/mL [8]: 33%
- Activity [9]: Non-toxic
- diameter of the inhibition zone (DIZ) [2]: 16 mm
- GI50 [6]: 52.5 µg/mL (≈ 117 µM)
- TGI [6]: > 80 µg/mL
- CC50 [6]: > 80 µg/mL

SMILES: Cc1ccc(-c2cn(CC3=C(Cl)c4ccccc4OCC3)nn2)cc1
- diameter of the inhibition zone (DIZ) [4]: 10 mm
- diameter of the inhibition zone (DIZ) [1]: 12 mm
- growth at 80 µg/mL [8]: 55%
- Activity [9]: Non-toxic
- diameter of the inhibition zone (DIZ) [2]: 9 mm

SMILES: Cc1cccc2c1OCCC(Cn1cc(COc3cccc4cccnc34)nn1)=C2Cl
- diameter of the inhibition zone (DIZ) [4]: 10 mm
- diameter of the inhibition zone (DIZ) [1]: 18 mm
